From patent US10201532B2, “Compounds and their use” (ALLECRA THERAPEUTICS GMBH, priority 2010, dated 2019)
“And” between values parts separate entries of the source, which are not always exact repeats. Equal entries are not always repeated.

Experiments:
[1] = system: KPC2 K. pneumoniae ATCC BAA 1705; assay: Neutropenic mice thigh infection model (human adapted model); format: in vivo; conditions: for Bacterial load (range), Doripenem + BLI: Doripenem 70 mg/kg fractionated + BLI 35 mg/kg bolus, end point 8 h
Description: Female Swiss Albino mice weighing 24-30 g were used for all studies. Study protocols were reviewed and approved by Institutional Animal Ethical Committee, Orchid Research Laboratories Limited. Mice were rendered neutropenic by intra-peritoneal cyclophosphamide injections. Log phase culture in brain heart infusion broth was injected in to mice thighs. Imipenem or Doripenen alone or in combination were administered sub-cutaneously in decreasing fractionated doses every 15 minutes over the period of 5.5 h (Flückiger, U. et al. “Integration of pharmacokinetics and pharmacodynamics of Imipenem in a human-adapted mouse model’. Antimicrobial Agents and Chemother, 1991, 35(9): 1905-1910). The Compound-1 or tazobactam was administered sub-cutaneously as bolus dose at the start of dosing. Efficacy end point was 6 h in Imipenem studies and 8 h in Doripenen studies.
Three experiments were carried out where Doripenen alone or in combination with compound-1 or tazobactam (two experiments) were evaluated. Doripenem 70 mg/kg was administered in fractionated doses over the period of 5.5 h (Fluckiger, U. et al. “Integration of pharmacokinetics and pharmacodynamics of Imipenem in a human-adapted mouse model’. Antimicrobial Agents and Chemother., 1991, 35(9): 1905-1910). Compound-1 or tazobactam was administered as bolus dose at initiation of therapy. Efficacy end point was 8 h after initiation of therapy.

[2] = system: KPC-2 producing K. pneumoniae (ATCC BAA-1705); assay: Synergistic broth micro-dilution MIC (checkerboard); format: cell-based, Klebsiella pneumoniae; conditions: ATCC BAA-1705
[3] = system: K. pneumoniae UMM3 (KPC2); assay: Synergistic broth micro-dilution MIC; format: cell-based, Klebsiella pneumoniae; conditions: BLI at 4 μg/mL
[4] = system: KPC-3 expressing E. coli (J53 R6206); assay: Synergistic broth micro-dilution MIC (checkerboard); format: cell-based, Escherichia coli
[5] = system: E. cloacae 01 MGH 049 (KPC2, AmpC); assay: Synergistic broth micro-dilution MIC; format: cell-based; conditions: BLI at 4 μg/mL

SMILES: C[n+]1ccn(C[C@@]2(C)[C@H](C(=O)[O-])N3C(=O)C[C@H]3S2(=O)=O)n1 [Compound-1, 1-{[(2S,3S,5R)-2-Carboxy-3-methyl-4,4,7-trioxo-4-thia-1-azabicyclo[3.2.0]hept-3-yl]methyl}-3-methyl-1H-1,2,3-triazol-3-ium]
- Bacterial load (range), Doripenem + BLI [1]: 7.9E+05-1.4E+06 CFU/thigh
- Bacterial load (range), Doripenem + BLI ([1]; listed as compound-1): 7.9E+05-1.3E+06 CFU/thigh
- Bacterial load, Imipenem + BLI ([1]; Imipenem 140 mg/kg fractionated + BLI 140 mg/kg bolus, end point 6 h): 2.1E+05 CFU/thigh
- MIC of Cefquinome in combination with BLI ([2]; BLI at 1 μg/mL): >64 µg/mL
- MIC of Ceftiofur in combination with BLI ([2]; BLI at 1 μg/mL): >64 µg/mL
- MIC of Cefepime in combination with BLI ([2]; BLI at 2 μg/mL): 64 µg/mL
- MIC of Cefotaxime in combination with BLI ([2]; BLI at 2 μg/mL): 32 µg/mL
- MIC of Cefquinome in combination with BLI ([2]; BLI at 2 μg/mL): >64 µg/mL
- MIC of Ceftazidime in combination with BLI ([2]; BLI at 2 μg/mL): >64 µg/mL
- MIC of Ceftiofur in combination with BLI ([2]; BLI at 2 μg/mL): >64 µg/mL
- MIC of Ceftobiprole in combination with BLI ([2]; BLI at 2 μg/mL): >64 µg/mL
- MIC of Imipenem in combination with BLI ([2]; BLI at 2 μg/mL): 4 to 8 µg/mL
- MIC of Meropenem in combination with BLI ([2]; BLI at 2 μg/mL): 16 µg/mL
- MIC of Aztreonam in combination with BLI ([2]; BLI at 4 μg/mL): >64 µg/mL
- MIC of Cefadroxil in combination with BLI ([2]; BLI at 4 μg/mL): >64 µg/mL
- MIC of Cefalonium in combination with BLI ([2]; BLI at 4 μg/mL): >64 µg/mL
- MIC of Cefepime in combination with BLI ([2]; BLI at 4 μg/mL): 32 µg/mL
- MIC of Cefotaxime in combination with BLI ([2]; BLI at 4 μg/mL): 16 µg/mL
- MIC of Cefquinome in combination with BLI ([2]; BLI at 4 μg/mL): 64 µg/mL
- MIC of Ceftazidime in combination with BLI ([2]; BLI at 4 μg/mL): ≥64 µg/mL
- MIC of Ceftiofur in combination with BLI ([2]; BLI at 4 μg/mL): >64 µg/mL
- MIC of Ceftobiprole in combination with BLI ([2]; BLI at 4 μg/mL): >64 µg/mL
- MIC of Ertapenem in combination with BLI ([2]; BLI at 4 μg/mL): 32 µg/mL
- MIC of Faropenem in combination with BLI ([2]; BLI at 4 μg/mL): >64 µg/mL
- MIC of Imipenem in combination with BLI ([2]; BLI at 4 μg/mL): 4 µg/mL
- MIC of Meropenem in combination with BLI ([2]; BLI at 4 μg/mL): 4 to 8 µg/mL and 8 µg/mL
- MIC of Cefepime in combination with BLI ([2]; BLI at 8 μg/mL): 16 µg/mL
- MIC of Cefotaxime in combination with BLI ([2]; BLI at 8 μg/mL): 16 µg/mL
- MIC of Cefquinome in combination with BLI ([2]; BLI at 8 μg/mL): 64 µg/mL
- MIC of Ceftazidime in combination with BLI ([2]; BLI at 8 μg/mL): 64 µg/mL
- MIC of Ceftiofur in combination with BLI ([2]; BLI at 8 μg/mL): 64 µg/mL
- MIC of Ceftobiprole in combination with BLI ([2]; BLI at 8 μg/mL): >64 µg/mL
- MIC of Ertapenem in combination with BLI ([2]; BLI at 8 μg/mL): 16 µg/mL
- MIC of Faropenem in combination with BLI ([2]; BLI at 8 μg/mL): >64 µg/mL
- MIC of Imipenem in combination with BLI ([2]; BLI at 8 μg/mL): 2 µg/mL
- MIC of Meropenem in combination with BLI ([2]; BLI at 8 μg/mL): 2 to 4 µg/mL
- MIC of Aztreonam in combination with BLI ([2]; BLI at 16 μg/mL): 64 µg/mL
- MIC of Cefadroxil in combination with BLI ([2]; BLI at 16 μg/mL): >64 µg/mL
- MIC of Cefalonium in combination with BLI ([2]; BLI at 16 μg/mL): 32 µg/mL
- MIC of Cefepime in combination with BLI ([2]; BLI at 16 μg/mL): 4 µg/mL
- MIC of Cefotaxime in combination with BLI ([2]; BLI at 16 μg/mL): 4 µg/mL
- MIC of Cefquinome in combination with BLI ([2]; BLI at 16 μg/mL): 8 to 16 µg/mL
- MIC of Ceftazidime in combination with BLI ([2]; BLI at 16 μg/mL): 4 µg/mL
- MIC of Ceftiofur in combination with BLI ([2]; BLI at 16 μg/mL): 16 to 32 µg/mL
- MIC of Ceftobiprole in combination with BLI ([2]; BLI at 16 μg/mL): 64 µg/mL
- MIC of Ertapenem in combination with BLI ([2]; BLI at 16 μg/mL): 8 µg/mL
- MIC of Faropenem in combination with BLI ([2]; BLI at 16 μg/mL): 64 µg/mL
- MIC of Imipenem in combination with BLI ([2]; BLI at 16 μg/mL): <0.5 to 1 µg/mL and 1 µg/mL
- MIC of Meropenem in combination with BLI ([2]; BLI at 16 μg/mL): 1 µg/mL
- MIC of Cefquinome in combination with BLI ([2]; BLI at 32 μg/mL): 2 to 4 µg/mL
- MIC of Ceftiofur in combination with BLI ([2]; BLI at 32 μg/mL): 4 µg/mL
- MIC of Aztreonam in combination with BLI ([2]; BLI at 64 μg/mL): <0.5 µg/mL
- MIC of Cefadroxil in combination with BLI ([2]; BLI at 64 μg/mL): 64 µg/mL
- MIC of Cefalonium in combination with BLI ([2]; BLI at 64 μg/mL): 8 µg/mL
- MIC of Cefepime in combination with BLI ([2]; BLI at 64 μg/mL): <0.5 µg/mL
- MIC of Cefotaxime in combination with BLI ([2]; BLI at 64 μg/mL): ≤0.5 µg/mL
- MIC of Cefquinome in combination with BLI ([2]; BLI at 64 μg/mL): 1 µg/mL
- MIC of Ceftazidime in combination with BLI ([2]; BLI at 64 μg/mL): 1 µg/mL
- MIC of Ceftiofur in combination with BLI ([2]; BLI at 64 μg/mL): 2 to 4 µg/mL
- MIC of Ceftobiprole in combination with BLI ([2]; BLI at 64 μg/mL): ≤0.5 µg/mL
- MIC of Ertapenem in combination with BLI ([2]; BLI at 64 μg/mL): <0.5 µg/mL
- MIC of Faropenem in combination with BLI ([2]; BLI at 64 μg/mL): 4 µg/mL
- MIC of Imipenem in combination with BLI ([2]; BLI at 64 μg/mL): <0.5 to 1 µg/mL
- MIC of Meropenem in combination with BLI ([2]; BLI at 64 μg/mL): <0.5 µg/mL
- MIC of Imipenem in combination with BLI [3]: 1 µg/mL
- MIC of Cefepime in combination with BLI ([4]; BLI at 2 μg/mL): 1 µg/mL
- MIC of Cefotaxime in combination with BLI ([4]; BLI at 2 μg/mL): 1 µg/mL
- MIC of Ceftazidime in combination with BLI ([4]; BLI at 2 μg/mL): 2 µg/mL
- MIC of Ceftobiprole in combination with BLI ([4]; BLI at 2 μg/mL): 2 µg/mL
- MIC of Imipenem in combination with BLI ([4]; BLI at 2 μg/mL): 1 µg/mL
- MIC of Meropenem in combination with BLI ([4]; BLI at 2 μg/mL): <0.06 µg/mL
- MIC of Cefepime in combination with BLI ([4]; BLI at 4 μg/mL): 0.25 µg/mL
- MIC of Cefotaxime in combination with BLI ([4]; BLI at 4 μg/mL): <0.25 µg/mL
- MIC of Ceftazidime in combination with BLI ([4]; BLI at 4 μg/mL): 1 µg/mL
- MIC of Ceftobiprole in combination with BLI ([4]; BLI at 4 μg/mL): 0.5 µg/mL
- MIC of Imipenem in combination with BLI ([4]; BLI at 4 μg/mL): 0.5 µg/mL
- MIC of Cefepime in combination with BLI ([4]; BLI at 8 μg/mL): <0.125 µg/mL
- MIC of Cefotaxime in combination with BLI ([4]; BLI at 8 μg/mL): <0.25 µg/mL
- MIC of Ceftazidime in combination with BLI ([4]; BLI at 8 μg/mL): 1 µg/mL
- MIC of Ceftobiprole in combination with BLI ([4]; BLI at 8 μg/mL): <0.25 µg/mL
- MIC of Imipenem in combination with BLI ([4]; BLI at 8 μg/mL): 0.5 µg/mL
- MIC of Meropenem in combination with BLI ([4]; BLI at 8 μg/mL): <0.06 µg/mL
- MIC of Imipenem in combination with BLI ([4]; BLI at 16 μg/mL): 0.25 µg/mL
- MIC of Meropenem in combination with BLI ([4]; BLI at 16 μg/mL): <0.125 µg/mL
- MIC ([4]; Escherichia coli, read-out: MIC of BLI alone, BLI alone): > 8 µg/mL
- MIC of Imipenem in combination with BLI [5]: 4 µg/mL
